According to US12232493B2, “Biopesticide formulation and treatment method thereof” (Xinjiang Institute of Ecology and Geography, Chinese …, priority 2023, dated 2025):
Where two headings read alike, the source gives them in different places.

What was measured:
sorghum = test: Pot experiment under drought treatment, terrein seed soaking or spraying, sorghum; type: in vivo
Method: (§1) An embodiment of effects of 2 μg/mL terrein formulation on the growth of four crops by seed soaking treatment under drought conditions is as follows. Terrein (purity 95%) is prepared as a solution with a concentration of 2 μg/mL in distilled water, and pakchoi, mung bean, sorghum, and wheat seeds are soaked in it for 6 hours, and the seeds are also soaked in distilled water as a blank control. Subsequently, the soaked crop seeds are sown into potted plants, and each of the treatment group is replicated five times. When the seedlings grew to about 10 cm, the drought treatment culture is carried out. The room temperature is 25° C., the humidity is 70%, 12 hours of light and 12 hours of darkness each day, and the light intensity is 80-100 μmol·m^−2·s^−1. During the period, the soil was kept in a dry state, and 200 mL is watered every week for 30 days, with a total of 800 mL. The drought culture conditions described below are all treated in the same way. After 30 days, the root length, seedling height, and fresh weight of pakchoi, mung bean, sorghum, and wheat are measured, and 10 seedlings are selected from each of the treatment groups, with a total of 50 plants (N=50), hereafter, they are dried in an oven and then measured dry weight. The growth rates of root length, seedling height, fresh weight, and dry weight of pakchoi, mung bean, sorghum, and wheat under 2 μg/mL compared to the blank control are first calculated, that is, An embodiment of effects of 10 μg/mL terrein formulation on the growth of four crops by seed soaking treatment under drought conditions is as follows. Terrein is prepared as a solution with a concentration of 10 μg/mL in distilled water, and pakchoi, mung bean, sorghum, and wheat seeds are soaked in it for 6 hours, and the seeds are also soaked in distilled water as a blank control. Subsequently, the soaked crop seeds are sown into potted plants. When the seedlings grew to about 10 cm, the drought treatment culture is carried out. After 30 days, the root length, seedling height, and fresh weight of pakchoi, mung bean, sorghum, and wheat are measured, hereafter, they are dried in an oven and then measured dry weight. An embodiment of effects of 2 μg/mL terrein formulation on the growth of four crops by spraying treatment under drought conditions is as follows. Seeds of four tested plants are soaked in distilled water and then sowing. Terrein is prepared as a solution with a concentration of 2 μg/mL in distilled water. When the potted pakchoi, mung bean, sorghum, and wheat grow to about 10 cm (15-20 days after sowing), spray them once, with an amount of about 3 mL, and distilled water sprayed used as blank control. Subsequently, the drought treatment culture is carried out. The room temperature is 25° C., the humidity is 70%, 12 hours of light and 12 hours of darkness each day, and the light intensity is 80-100 μmol·m^−2·s^−1. During the period, the soil was kept in a dry state, and 200 mL is watered every week for 30 days, with a total of 800 mL. After 30 days, the root length, seedling height, and fresh weight of pakchoi, mung bean, sorghum, and wheat are measured, hereafter, they are dried in an oven and then measured dry weight. An embodiment of effects of 10 μg/mL terrein formulation on the growth of four crops by spraying treatment under drought conditions is as follows. Seeds of four tested plants are soaked in distilled water and then sowing. Terrein is prepared as a solution with a concentration of 10 μg/mL in distilled water. When the potted pakchoi, mung bean, sorghum, and wheat grow to about 10 cm (15-20 days after sowing), spray them once, with an amount of about 3 mL, and distilled water sprayed used as blank control. Subsequently, the drought treatment is carried out. After 30 days, the root length, seedling height, and fresh weight of pakchoi, mung bean, sorghum, and wheat are measured, hereafter, they are dried in an oven and then measured dry weight. […]

wheat = test: Pot experiment under drought treatment, terrein seed soaking or spraying, wheat; type: in vivo
Method: as §1

pakchoi = test: Indoor petri dish bioassay, pakchoi under drought treatment conditions; type: in vivo; conditions: for inhibition at 250 µg/mL: terrein 250 μg/mL
Method: The present invention has done corresponding indoor petri dish bioassay experiments before, with pakchoi under drought treatment conditions as the recipient plant, terrein as the donor, and the concentration of terrein is set to 0, 2, 10, 50 and 250 μg/mL. […] Therefore, the present invention only selects low concentrations (2 μg/mL, 10 μg/mL) for experiments to confirm the effect of terrein on drought resistance and growth promotion of crops in outdoor pot experiments.

Solubility in water = type: physicochemical
[1] = 2 μg/mL terrein seed soaking treatment, drought, 30 days
[2] = 2 μg/mL terrein seed soaking, drought, 30 days
[3] = 2 μg/mL terrein spraying at seedling stage
[4] = 2 μg/mL terrein spraying treatment, drought, 30 days
[5] = 2 μg/mL terrein spraying, drought, 30 days
[6] = 10 μg/mL terrein seed soaking treatment, drought, 30 days
[7] = 10 μg/mL terrein seed soaking, drought
[8] = 10 μg/mL terrein seed soaking, drought, 30 days
[9] = 10 μg/mL terrein spraying treatment, drought, 30 days
[10] = 10 μg/mL terrein spraying, drought
[11] = 10 μg/mL terrein spraying, drought, 30 days

`C/C=C/C1=CC(=O)[C@H](O)[C@H]1O` [terrein] showed a dry weight (sorghum; [1]) of 0.37 g, a fresh weight (sorghum; [1]) of 1.71 g and a root length (sorghum; [1]) of 35.67 cm. The seedling height (sorghum; [1]) was 40.43 cm, the effect on growth (sorghum; [2]) was “no significant effect” and the effect on growth (sorghum; [3]) was “significant promoting effect”. For the same molecule, the dry weight (sorghum; [4]) was 0.40 g, the fresh weight (sorghum; [4]) was 1.92 g and the root length (sorghum; [4]) was 38.15 cm. For the same molecule, the seedling height (sorghum; [4]) was 39.14 cm, the “growth rate of dry weight compared with the blank control” value (sorghum; [5]) was 20.80% and the “growth rate of fresh weight compared with the blank control” value (sorghum; [5]) was 18.92%. For the same molecule, the “growth rate of root length compared with the blank control” value (sorghum; [5]) was 18.49%, the dry weight (sorghum; [6]) was 0.38 g and the fresh weight (sorghum; [6]) was 1.88 g. The root length (sorghum; [6]) was 33.99 cm, the seedling height (sorghum; [6]) was 39.69 cm and the effect on growth (sorghum; [7]) was “significant promoting effect”. The “growth rate of dry weight compared with the blank control” value (sorghum; [8]) was 15.42%, the dry weight (sorghum; [9]) was 0.42 g and the fresh weight (sorghum; [9]) was 1.93 g. For the same molecule, the root length (sorghum; [9]) was 42.01 cm, the seedling height (sorghum; [9]) was 38.16 cm and the effect on growth (sorghum; [10]) was “significant promoting effects”. For the same molecule, the “growth rate (promotion rate) of dry weight compared with the blank control” value (sorghum; [11]) was 25.19%, the “growth rate (promotion rate) of fresh weight compared with the blank control” value (sorghum; [11]) was 19.90% and the “growth rate (promotion rate) of root length compared with the blank control” value (sorghum; [11]) was 30.50%. For the same molecule, the effect on growth (wheat; 2 μg/mL terrein seed soaking) was “significantly promote”, the dry weight (wheat; [1]) was 0.26 g and the fresh weight (wheat; [1]) was 1.10 g. For the same molecule, the root length (wheat; [1]) was 16.13 cm, the seedling height (wheat; [1]) was 21.55 cm and the “promotion rate of dry weight compared with the blank control” value (wheat; [2]) was 21.99%. The “promotion rate of fresh weight compared with the blank control” value (wheat; [2]) was 52.30%, the effect on growth (wheat; [3]) was “significant promoting effect” and the dry weight (wheat; [4]) was 0.25 g. It also gave a fresh weight (wheat; [4]) of 1.16 g, a root length (wheat; [4]) of 17.02 cm and a seedling height (wheat; [4]) of 18.93 cm. The “growth rate of dry weight compared with the blank control” value (wheat; [5]) was 16.29%, the “growth rate of fresh weight compared with the blank control” value (wheat; [5]) was 60.98% and the dry weight (wheat; [6]) was 0.26 g. The fresh weight (wheat; [6]) was 1.27 g, the root length (wheat; [6]) was 18.96 cm and the seedling height (wheat; [6]) was 20.25 cm. The effect on growth (wheat; [7]) was “significant promoting effect”, the “growth rate of dry weight compared with the blank control” value (wheat; [8]) was 22.35% and the “growth rate of fresh weight compared with the blank control” value (wheat; [8]) was 76.39%. The “growth rate of root length compared with the blank control” value (wheat; [8]) was 25.09%, the dry weight (wheat; [9]) was 0.29 g and the fresh weight (wheat; [9]) was 1.42 g. For the same molecule, the root length (wheat; [9]) was 25.37 cm, the seedling height (wheat; [9]) was 20.49 cm and the effect on growth (wheat; [10]) was “significant promoting effects”. For the same molecule, the “growth rate (promotion rate) of dry weight compared with the blank control” value (wheat; [11]) was 34.79%, the “growth rate (promotion rate) of fresh weight compared with the blank control” value (wheat; [11]) was 97.21% and the “growth rate (promotion rate) of root length compared with the blank control” value (wheat; [11]) was 67.40%. For the same molecule, the “promotion rate of pakchoi root length” value (pakchoi; terrein 2 μg/mL) was 13.51%, the “promotion rate of pakchoi seedling height” value (pakchoi; terrein 2 μg/mL) was 21.70% and the “promotion rate of pakchoi root length” value (pakchoi; terrein 10 μg/mL) was 18.82%. For the same molecule, the “promotion rate of pakchoi seedling height” value (pakchoi; terrein 10 μg/mL) was 23.26%, the “effect on seedling height” value (pakchoi; terrein 50 μg/mL) was “not significant” and the inhibition at 50 µg/mL (pakchoi; terrein 50 μg/mL, read-out: inhibition rate of pakchoi root length) was 16%. For the same molecule, the inhibition at 250 µg/mL (pakchoi; read-out: inhibition rate of pakchoi root length) was 86.8%, the inhibition at 250 µg/mL (pakchoi; read-out: inhibition rate of pakchoi seedling height) was 5.71% and the solubility in water (Solubility in water) was “easily soluble in water”.
